What was measured:
Test in all cases: IgG dLIA with pAb standards, NHP sera, CpG study (Example 5)
Type in all cases: in vivo, rhesus macaque
[1] = system: E. coli O-antigen serotype O1a; details: 4 valent O-antigen SCP with CpG 1800 μg; dLIA standard (pAb/mAb) not specified; listed as CpG
Method: (§1) The 4-plex O-antigen IgG dLIA serology assay was completed as follows: The primate serology assay utilized the same O-antigen MagPlex®-C microspheres (Luminex) as the mouse serology assay described in Example 3, above. Microspheres were incubated with serially diluted NHP serum samples, controls, and human polyclonal serum standards overnight at 2-8° C. while shaking. In this case, bound serotype-specific IgG was detected with PE-conjugated goat anti-human IgG. Fcγ fragment-specific secondary antibody (Jackson Laboratories) and fluorescence was measured on the FlexMap 3D instrument ([…]). Human serum containing IgG to all four O-antigens was used as an internal standard for interpolating NHP serum IgG concentrations. […] Lower limit of quantification (LLOQ) was defined as 2 U/mL.
(§2) In this study, the adjuvanting effect of nucleotide adjuvant CpG 24555 on immunogenicity of E. coli O-antigen SCP glycoconjugates of serotypes O1a, O2, O6, and O25b was assessed in a NHP (Rhesus Macaques) model.
(§3) 20 male rhesus macaques were selected for this study. Three groups of Rhesus macaques were vaccinated with the 4 valent O-antigen SCP glycoconjugates including one group without CpG adjuvant, one group with CpG adjuvant and a lower dose of the 4 valent O-antigen SCP glycoconjugates, and one group with CpG adjuvant and a higher dose of 4 valent O-antigen SCP glycoconjugates. The no adjuvant control group, as well as the group with CpG adjuvant and the higher dose of glycoconjugates included 2 μg of serotypes O1a, O2, and O6, as well as 4 μg of serotype O25b. The group with CpG adjuvant and the lower dose of glycoconjugates included 0.5 μg of serotypes O1a, O2, and O6, as well as 1 μg of serotype O25b. Vaccination was administered at months 0, 2, and 6. Animals were bled prior to vaccination and at weeks 1, 2, 4, 6, 9, 10, 12, 25, and 26. 0.5 mL of vaccine formulation was injected intramuscularly (IM).
(§4) Geometric mean titers (GMTs) of IgG antibodies specific for each of the respective 0-antigen serotypes O1a, O2, O6, and O25b were quantified using a Luminex 4-plex dLIA assay. The 4-plex O-antigen IgG dLIA serology assay was completed as described in Example 4, above. Table 21 and 22, below, present data for IgG GMT titers for each of serotypes O1a, O2, O6, and O25b.

[2] = system: E. coli O-antigen serotype O25b; details: 4 valent O-antigen SCP with CpG 1800 μg; after each vaccination; dLIA standard (pAb/mAb) not specified; listed as CpG
Method: as §1, §2, §3, §4

[3] = system: E. coli O-antigen serotype O2; details: 4 valent O-antigen SCP with CpG 1800 μg, dLIA standard (pAb/mAb) not specified
Method: as §1, §2, §3, §4

[4] = system: E. coli O-antigen serotype O6; details: 4 valent O-antigen SCP with CpG 1800 μg, dLIA standard (pAb/mAb) not specified
Method: as §1, §2, §3, §4

Substance: CpG 24555 [CpG adjuvant]
- Serotype O1a IgG titers, fold increase vs. unadjuvanted titers [1]: greater than twenty-fold increases
- Serotype O25b IgG titers, fold increase vs. unadjuvanted titers [2]: greater than twenty-fold increases
- Serotype O2 IgG titers, fold increase vs. unadjuvanted titers [3]: less than 10 fold
- Serotype O2 IgG titers, fold increase vs. unadjuvanted titers ([3]; listed as CpG): up to ten-fold increases
- Serotype O6 IgG titers, fold increase vs. unadjuvanted titers [4]: less than 10 fold
- Serotype O6 IgG titers, fold increase vs. unadjuvanted titers ([4]; listed as CpG): up to ten-fold increases

Source: patent US20250281590A1, “IMMUNOGENIC COMPOSITIONS COMPRISING CONJUGATED ESCHERICHIA COLI SACCHARIDES AND USES THEREOF” (Pfizer Inc., priority 2024, published 2025)
